Values joined by “and” are separate entries in the source; they are usually repeats but may differ in a detail not shown here. Equal entries are not always repeated.
Experiments:
mTOR = mTOR (Homo sapiens, UniProt P42345); assay: Target kinase 10-point inhibition assay, mTOR; assay type: biochemical; conditions: replicates
Protocol: Quantitation of kinase inhibition was carried out by Life Technologies (Madison, WI) using the SelectScreen profiling platforms Z’-LYTE^TM and Adapta^TM. Single-point broad panel kinome screening was performed at 2.5 µM LP-182 against all kinases within the Z’-LYTE^TM and Adapta^TM assays (321 kinase isoforms, holoenzymes, or mutant variants). The average percent kinase inhibition from replicate data was ranked low to high, converted to a compatible identifier format, then input into Coral Human Kinome Visualization software for presentation analysis. […] Scaling of evolutionary distance for PI kinases is only relative and is based on literature analysis[62],[63]. Average percent kinome inhibition values from replicate data are supplied in Source Data file. […]. Corrected data was normalized to vehicle treated control values, and dose response percent kinase activity was analyzed by non-linear regression for determination of IC50 values.

[1] = Pharmacokinetic analysis of plasma after intravenous and oral dosing; conditions: for concentration at 0.5 h / concentration at 1 h / concentration at 2 h / concentration at 4 h / concentration at 7 h / concentration at 24 h / half-life: female, CD-1, mouse
Protocol: Samples were centrifuged at 15,000 rpm for 10 min, then blood plasma was collected from the upper layer and frozen at −80 °C until analysis. […] Sample processing, chromatographic separation, MS, and MS/MS parameters used for analysis were determined by the core. […] Standard curves for peak area ratio of compound to internal standard (Astd/AIstd) vs. compound concentration were used to determine sample analyte concentrations through linear regression with a weighting average of 1/X^2. […] All pharmacokinetic parameters were estimated using non-compartmental analysis with Phoenix/WINONLIN, and provided by the core along with calculated sample analyte concentrations. Data was generated from n ≥ 3 individual animals sampled per time point per compound for each method of dosing.

Sequence of mTOR (P42345 1360-2549 limits assumed): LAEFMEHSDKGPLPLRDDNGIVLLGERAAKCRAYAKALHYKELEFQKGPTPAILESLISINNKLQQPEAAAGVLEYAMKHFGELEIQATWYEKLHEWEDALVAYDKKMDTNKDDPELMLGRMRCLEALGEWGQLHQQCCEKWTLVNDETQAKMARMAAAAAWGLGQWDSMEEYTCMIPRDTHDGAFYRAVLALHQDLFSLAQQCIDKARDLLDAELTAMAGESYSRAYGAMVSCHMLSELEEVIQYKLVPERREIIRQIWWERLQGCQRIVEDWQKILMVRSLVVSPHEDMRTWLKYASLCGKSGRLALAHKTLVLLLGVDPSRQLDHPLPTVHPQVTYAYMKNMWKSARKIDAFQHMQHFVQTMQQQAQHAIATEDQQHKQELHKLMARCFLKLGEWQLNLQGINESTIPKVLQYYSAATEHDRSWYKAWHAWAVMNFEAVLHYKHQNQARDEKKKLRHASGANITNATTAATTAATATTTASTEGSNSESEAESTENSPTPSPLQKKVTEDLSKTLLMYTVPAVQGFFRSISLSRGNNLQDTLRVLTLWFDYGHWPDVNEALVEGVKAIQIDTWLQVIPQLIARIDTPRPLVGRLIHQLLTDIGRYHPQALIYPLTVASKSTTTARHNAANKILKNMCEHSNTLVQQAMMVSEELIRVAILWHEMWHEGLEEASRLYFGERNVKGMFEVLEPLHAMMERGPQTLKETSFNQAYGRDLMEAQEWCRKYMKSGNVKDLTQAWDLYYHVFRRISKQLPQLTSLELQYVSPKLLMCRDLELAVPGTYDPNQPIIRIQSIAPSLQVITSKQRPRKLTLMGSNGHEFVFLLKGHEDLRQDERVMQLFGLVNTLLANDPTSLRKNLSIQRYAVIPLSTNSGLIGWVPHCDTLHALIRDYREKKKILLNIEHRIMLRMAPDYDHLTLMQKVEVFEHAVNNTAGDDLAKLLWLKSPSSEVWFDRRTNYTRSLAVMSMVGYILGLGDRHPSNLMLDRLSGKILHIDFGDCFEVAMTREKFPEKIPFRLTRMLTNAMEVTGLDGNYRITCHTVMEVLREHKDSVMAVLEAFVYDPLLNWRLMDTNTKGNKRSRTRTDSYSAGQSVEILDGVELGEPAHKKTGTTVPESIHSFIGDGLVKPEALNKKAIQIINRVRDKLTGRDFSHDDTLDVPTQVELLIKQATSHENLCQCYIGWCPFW

With `O=C(NOCCOCCOCCOCCC(=O)N1CCN(c2cnc3ccc(-c4cnc(Cl)c(NS(=O)(=O)c5ccc(F)cc5)c4)cc3n2)CC1)c1ccc(F)c(F)c1Nc1ccc(I)cc1F` [LP-182, N-(2-(2-(2-(3-(4-(7-(6-chloro-5-((4-fluorophenyl)sulfonamido)pyridin-3-yl)quinoxalin-2-yl)piperazin-1-yl)-3-oxopropoxy)ethoxy)ethoxy)ethoxy)-3,4-difluoro-2-((2-fluoro-4-iodophenyl)amino)benzamide] the activity at 0.000495 µM (mTOR; 0.495 nM) was 95%, the “Kinase Activity (%)” value (mTOR; 0.495 nM, 0.000495 µM) was 99% and 98% and 101% and 94% and 96% and the activity at 0.00152 µM (mTOR; 1.52 nM) was 97%. The “Kinase Activity (%)” value (mTOR; 1.52 nM, 0.00152 µM) was 99% and 100% and 94% (2×), the activity at 0.00457 µM (mTOR; 4.57 nM) was 91% and the “Kinase Activity (%)” value (mTOR; 4.57 nM, 0.00457 µM) was 92% and 94% and 87% and 88%. The activity at 0.0412 µM (mTOR; 41.2 nM) was 52%, the “Kinase Activity (%)” value (mTOR; 41.2 nM, 0.0412 µM) was 63% and 57% (2×) and 47% (2×) and the activity at 0.123 µM (mTOR; 123 nM) was 29%. For the same compound, the “Kinase Activity (%)” value (mTOR; 123 nM, 0.123 µM) was 30% (2×) and 32% and 31%, the activity at […] (mTOR; 370 nM) was 13% and the “Kinase Activity (%)” value (mTOR; 1110 nM, 1.11 µM) was 4% and 3% (2×) and 5% and 1% and 2%. For the same compound, the “Kinase Activity (%)” value (mTOR; 3330 nM, 3.33 µM) was 0% (4×) and -1% and -2%, the “Kinase Activity (%)” value (mTOR; 10000 nM, 10 µM) was 2% and -1% (4×) and 1% and the Concentration ([1]; Supplementary Figure 6a, i.v., Time 0.167 h, individual replicates) was 11100 ng/mL and 8270 ng/mL and 5220 ng/mL. The Concentration ([1]; Supplementary Figure 6a, i.v., Time 0.5 h, individual replicates) was 807 ng/mL and 646 ng/mL, the Concentration ([1]; Supplementary Figure 6a, i.v., Time 1 h, individual replicates) was 451 ng/mL and 857 ng/mL and the Concentration ([1]; Supplementary Figure 6a, i.v., Time 2 h, individual replicates) was 275 ng/mL and 179 ng/mL. For the same compound, the Concentration ([1]; Supplementary Figure 6a, i.v., Time 4 h, individual replicates) was 141 ng/mL and 75.9 ng/mL, the Concentration ([1]; Supplementary Figure 6a, i.v., Time 7 h, individual replicates) was 51.4 ng/mL and 34.3 ng/mL and the Concentration ([1]; Supplementary Figure 6a, i.v., Time 16 h, individual replicates) was 30.6 ng/mL and 29.3 ng/mL and 5.58 ng/mL. The Concentration ([1]; Supplementary Figure 6a, i.v., Time 24 h, individual replicates) was 7.68 ng/mL and 8.28 ng/mL, the Concentration ([1]; Supplementary Figure 6a, p.o., Time 0.167 h, individual replicates) was 731 ng/mL and 1660 ng/mL and 900 ng/mL and the Concentration ([1]; Supplementary Figure 6a, p.o., Time 0.5 h, individual replicates) was 2150 ng/mL and 2630 ng/mL. The Concentration ([1]; Supplementary Figure 6a, p.o., Time 1 h, individual replicates) was 1580 ng/mL and 1950 ng/mL, the Concentration ([1]; Supplementary Figure 6a, p.o., Time 2 h, individual replicates) was 424 ng/mL and 145 ng/mL and 74.1 ng/mL and the Concentration ([1]; Supplementary Figure 6a, p.o., Time 4 h, individual replicates) was 146 ng/mL and 522 ng/mL and 339 ng/mL. The Concentration ([1]; Supplementary Figure 6a, p.o., Time 7 h, individual replicates) was 331 ng/mL and 97.6 ng/mL and 1560 ng/mL, the Concentration ([1]; Supplementary Figure 6a, p.o., Time 16 h, individual replicates) was 79.2 ng/mL and 205 ng/mL and 265 ng/mL and the Concentration ([1]; Supplementary Figure 6a, p.o., Time 24 h, individual replicates) was 401 ng/mL and 114 ng/mL and 295 ng/mL. For the same compound, the concentration at 0.5 h ([1]; plasma, iv, 15 mg kg^−1, Concentration (ng/mL), mice, single i.v. LP-182 15 mg kg^−1, 0.5 h, analyte = label, individual animals) was 1180 ng/mL, the concentration at 1 h ([1]; plasma, iv, 15 mg kg^−1, Concentration (ng/mL), mice, single i.v. LP-182 15 mg kg^−1, 1 h, analyte = label, individual animals) was 524 ng/mL and the concentration at 2 h ([1]; plasma, iv, 15 mg kg^−1, Concentration (ng/mL), mice, single i.v. LP-182 15 mg kg^−1, 2 h, analyte = label, individual animals) was 275 ng/mL. For the same compound, the concentration at 4 h ([1]; plasma, iv, 15 mg kg^−1, Concentration (ng/mL), mice, single i.v. LP-182 15 mg kg^−1, 4 h, analyte = label, individual animals) was 83.2 ng/mL, the concentration at 7 h ([1]; plasma, iv, 15 mg kg^−1, Concentration (ng/mL), mice, single i.v. LP-182 15 mg kg^−1, 7 h, analyte = label, individual animals) was 29.2 ng/mL and the concentration at 24 h ([1]; plasma, iv, 15 mg kg^−1, Concentration (ng/mL), mice, single i.v. LP-182 15 mg kg^−1, 24 h, analyte = label, individual animals) was 9.67 ng/mL. It also gave a concentration at 0.5 h ([1]; plasma, iv, 15 mg kg^−1, Concentration, Supplementary Figure 6a, Time 0.5 h, individual replicates) of 1180 ng/mL, a concentration at 1 h ([1]; plasma, iv, 15 mg kg^−1, Concentration, Supplementary Figure 6a, Time 1 h, individual replicates) of 524 ng/mL and a concentration at 2 h ([1]; plasma, iv, 15 mg kg^−1, Concentration, Supplementary Figure 6a, Time 2 h, individual replicates) of 275 ng/mL. For the same compound, the concentration at 4 h ([1]; plasma, iv, 15 mg kg^−1, Concentration, Supplementary Figure 6a, Time 4 h, individual replicates) was 83.2 ng/mL, the concentration at 7 h ([1]; plasma, iv, 15 mg kg^−1, Concentration, Supplementary Figure 6a, Time 7 h, individual replicates) was 29.2 ng/mL and the concentration at 24 h ([1]; plasma, iv, 15 mg kg^−1, Concentration, Supplementary Figure 6a, Time 24 h, individual replicates) was 9.67 ng/mL. For the same compound, the half-life ([1]; plasma, iv, 15 mg/kg) was 7.9 h, the concentration at 0.5 h ([1]; plasma, po, 400 mg kg^−1, Concentration (ng/mL), mice, single p.o. LP-182 400 mg kg^−1, 0.5 h, analyte = label, individual animals) was 2530 ng/mL and the concentration at 1 h ([1]; plasma, po, 400 mg kg^−1, Concentration (ng/mL), mice, single p.o. LP-182 400 mg kg^−1, 1 h, analyte = label, individual animals) was 1240 ng/mL. For the same compound, the concentration at 0.5 h ([1]; plasma, po, 400 mg kg^−1, Concentration, Supplementary Figure 6a, Time 0.5 h, individual replicates) was 2530 ng/mL, the concentration at 1 h ([1]; plasma, po, 400 mg kg^−1, Concentration, Supplementary Figure 6a, Time 1 h, individual replicates) was 1240 ng/mL and the half-life ([1]; plasma, po, 400 mg/kg) was 12.7 h. For the same compound, the “plasma level maintained over 24 h” value ([1]; mice, after oral LP-182 400 mg kg^−1, analyte = label) was ~ 300 ng mL^-1 and the “Concentration” value ([1]; mice, plasma, single i.v. LP-182 15 mg kg^−1, 0.167 h, analyte = label, individual animals) was 11100 ng/mL and 8270 ng/mL and 5220 ng/mL.
